Data as given in article PMC8524809 (Molecular Therapy, 2021).

Columns and labels:
[1] = system: SARS-CoV-2 S pseudovirion alpha variant; assay type: cell-based; settings: similar to the WT
[2] = system: SARS-CoV-2 S pseudovirion beta variant; assay type: cell-based; settings: similar to the WT

With `CC(C)(O)c1ccccc1CC[C@@H](SCC1(CC(=O)O)CC1)c1cccc(/C=C/c2ccc3ccc(Cl)cc3n2)c1` [montelukast] as the compound, how does the “Inhibition of pseudovirus entry” value [1] read?
Its value is “increase in a dose-dependent manner”.

What about the “Inhibition of pseudovirus entry” value [2] of the same compound?
Its value is “increase in a dose-dependent manner”.
